This passage reports IC50 results from patent US20240343727A1, “PYRIDAZINONE OR PYRIDINONE COMPOUNDS, PREPARATION METHODS AND USES THEREOF” (InventisBio Co., Ltd., priority 2021, published 2024).

Where two headings read alike, the source gives them in different places. Some results are limits rather than exact numbers.

One assay has as its system NCI-H1373 cells. The assay is described as follows: Inhibition of cancer cell growth in NCI-H1373 cells (Cell-titer Glo, 6 days). Particulars: read-out: H1373 Cell Proliferation IC50. The class given is cell-based. Here is the method:
Biological Assay Example B: Inhibition of cancer cell growth in NCI-H1373 cells by PARP7 inhibitors
NCI-H1373 cells were cultured in RPMI 1640 medium supplemented with 10% fetal bovine serum, 100 U/mL penicillin and 100 ug/mL streptomycin in a 37° C., 5% CO2 incubator. Fifteen hundred cells were seeded into each well of 96-well plate in RPMI1640 medium containing 10% fetal bovine serum and incubated overnight. Serial diluted compounds for each well were added at a final DMSO concentration of 0.5% and a day zero plate was collected for analysis. Compounds were incubated with the cells for 6 days. Cell growth was assessed using Cell-titer Glo reagent (Promega #G^7572). The luminescence signal was collected on Tecan Spark plate reader. Cell growth is determined by correcting for the cell count on day zero. Inhibition rate is calculated with the formula of % inhibition=100*(DMSO control-compounds)/(DMSO control-Blank). Cell growth inhibition IC50 is calculated with the equation of Y-Bottom+ (Top-Bottom)/(1+10^((LogIC50−X) *Hill Slope)).

Another assay deals with T1, PARP7 (Homo sapiens, UniProt Q7Z3E1).
T1 sequence (Q7Z3E1 1-657): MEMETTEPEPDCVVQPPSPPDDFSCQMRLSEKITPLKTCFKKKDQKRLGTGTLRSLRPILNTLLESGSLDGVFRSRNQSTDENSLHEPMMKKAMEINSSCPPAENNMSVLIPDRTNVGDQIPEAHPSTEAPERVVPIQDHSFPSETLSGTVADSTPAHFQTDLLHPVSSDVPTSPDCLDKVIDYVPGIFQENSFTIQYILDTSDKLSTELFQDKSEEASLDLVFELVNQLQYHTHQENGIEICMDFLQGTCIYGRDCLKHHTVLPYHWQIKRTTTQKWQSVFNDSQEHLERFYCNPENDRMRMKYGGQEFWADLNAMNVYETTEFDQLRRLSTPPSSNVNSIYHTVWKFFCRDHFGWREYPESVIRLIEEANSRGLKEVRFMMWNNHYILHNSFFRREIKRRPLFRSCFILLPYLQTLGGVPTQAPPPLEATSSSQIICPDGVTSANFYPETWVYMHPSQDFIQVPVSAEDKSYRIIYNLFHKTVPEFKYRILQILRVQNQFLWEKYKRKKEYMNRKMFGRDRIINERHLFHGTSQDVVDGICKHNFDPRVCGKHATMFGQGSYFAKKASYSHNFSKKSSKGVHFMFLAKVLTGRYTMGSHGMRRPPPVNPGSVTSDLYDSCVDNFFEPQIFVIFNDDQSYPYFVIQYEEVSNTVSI
The assay is described as follows: PARP7 TR-FRET assay (binding, displacement of biotinylated Probe A). Particulars: 6 nM PARP7, 2 nM Probe A, 25° C., 30 min. Summed up:
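Compound displacement of biotinylated Probe A (2 nM) from PARP7 (6 nM) measured by TR-FRET in HEPES pH 8.0 buffer, 30 min at 25° C. Detection used ULight-anti 6xHis (4 nM) plus Eu-streptavidin (0.25 nM) for 30 min, reading the 665/615 nm ratio. % inhibition was taken against DMSO and no-enzyme wells, and IC50 from a Hill fit.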
For orientation: In TR-FRET formats the signal depends on donor and acceptor labels being close together.

In the case of `N#Cc1ccc2c(c1)N(c1cc(C(F)(F)F)c(=O)[nH]n1)CC(CC(=O)N1CCN(c3ncc(C4CC4)cn3)CC1)O2` (single isomer, unassigned) [Compound 316], the IC50 in the assay on NCI-H1373 cells (Homo sapiens, NCI-H1373, 144 h) was less than 100 nM; on PARP7, less than 100 nM.
On to `O=C(COC1CCOc2c1n[nH]c(=O)c2C(F)F)N1CCN(c2ncc(C(F)(F)F)cn2)CC1` (single isomer, unassigned) [Compound 114], for which the IC50 was more than 1000 nM in the assay on NCI-H1373 cells (Homo sapiens, NCI-H1373, 144 h) and more than 1000 nM on PARP7.
Consider `COCc1ccc2c(c1)N(c1cc(C(F)(F)F)c(=O)[nH]n1)CC(CC(=O)N1CCN(c3ncc(C(F)(F)F)cn3)CC1)O2` (single isomer, unassigned) [Compound 266], for which the IC50 in the assay with NCI-H1373 cells (Homo sapiens, NCI-H1373, 144 h) is less than 100 nM; at PARP7, less than 100 nM.
On to `O=C(COC1CCOc2c1n[nH]c(=O)c2Cl)N1CCN(c2ncc(C(F)(F)F)cn2)CC1` (single isomer, unassigned) [Compound 54], for which the IC50 in the assay with NCI-H1373 cells was more than 1000 nM; at PARP7, less than 100 nM.
Regarding `CCOC1CN(c2c(Oc3ccnc(C(=O)N4CCN(c5ncc(C(F)(F)F)cn5)[C@H](C)C4)c3)n[nH]c(=O)c2C(F)(F)F)C1` [Compound 339], the IC50 was less than 100 nM with NCI-H1373 cells (Homo sapiens, NCI-H1373, 144 h) and less than 100 nM at PARP7.
Take `Cc1c(N2C[C@@H](CC(=O)N3CCN(c4ncc(C(F)(F)F)cn4)CC3)O[C@@H](C)C2)n[nH]c(=O)c1C(F)(F)F` (stereo in doubt) [Compound 40]: the IC50 with NCI-H1373 cells (Homo sapiens, NCI-H1373, 144 h) was 100 to 1000 nM; on PARP7, less than 100 nM.
In the case of `O=C(C[C@@H]1CN(c2cc(C(F)(F)F)c(=O)[nH]n2)c2ccccc2O1)N1CCN(c2ncc(C(F)(F)F)cn2)CC1` [Compound 34], the IC50 was less than 100 nM in the assay on NCI-H1373 cells (Homo sapiens, NCI-H1373, 144 h) and less than 100 nM at PARP7.
In the case of `O=C(C[C@H]1CN(c2cc(C(F)(F)F)c(=O)[nH]n2)c2ccccc2O1)N1CCN(c2ncc(C(F)(F)F)cn2)CC1` [Compound 35], the IC50 is more than 1000 nM with NCI-H1373 cells (Homo sapiens, NCI-H1373, 144 h) and 100 to 1000 nM at PARP7.
For `O=C(CC1CN(c2cc(C(F)(F)F)c(=O)[nH]n2)c2cc(C(=O)N3CCC3)ccc2O1)N1CCN(c2ncc(C(F)(F)F)cn2)CC1` (single isomer, unassigned) [Compound 336], the IC50 in the assay on NCI-H1373 cells and on PARP7 was less than 100 nM each time.
Turning to `N#Cc1ccc(N2CCN(C(=O)c3cccc(Oc4n[nH]c(=O)c(C(F)(F)F)c4N4CC5(CCCO5)C4)c3)CC2)nc1` [Compound 223], the IC50 in the assay with NCI-H1373 cells (Homo sapiens, NCI-H1373, 144 h) is 100 to 1000 nM; on PARP7, less than 100 nM.
`C#Cc1ccc2c(c1)N(c1cc(C(F)(F)F)c(=O)[nH]n1)CC(CC(=O)N1CCN(c3ncc(C(F)(F)F)cn3)CC1)O2` (stereo not drawn) [Compound 149]: the IC50 was less than 100 nM with NCI-H1373 cells (Homo sapiens, NCI-H1373, 144 h) and less than 100 nM on PARP7.
For the compound `C[C@@H]1CN(C(=O)c2cncc(Oc3n[nH]c(=O)c(C(F)(F)F)c3N3CC4(C3)CC(F)(F)C4)c2)CCN1c1ncc(Cl)cn1` [Compound 321], the IC50 was less than 100 nM with NCI-H1373 cells (Homo sapiens, NCI-H1373, 144 h) and less than 100 nM on PARP7.
On to `Cc1c(Oc2cc(C(=O)N3CCN(c4ncc(C(F)(F)F)cn4)CC3)ccc2F)n[nH]c(=O)c1C(F)(F)F` [Compound 63], for which the IC50 with NCI-H1373 cells (Homo sapiens, NCI-H1373, 144 h) was 100 to 1000 nM; at PARP7 it was less than 100 nM.
As for `Cn1ccc2c(=O)[nH]nc(Oc3cccc(C(=O)N4CCN(c5ncc(C(F)(F)F)cn5)CC4)c3)c21` [Compound 73], the IC50 in the assay with NCI-H1373 cells (Homo sapiens, NCI-H1373, 144 h) was 100 to 1000 nM; on PARP7, less than 100 nM.
For `CNC(=O)c1ccc2c(c1)N(c1cc(C(F)(F)F)c(=O)[nH]n1)CC(CC(=O)N1CCN(c3ncc(C(F)(F)F)cn3)CC1)O2` (single isomer, unassigned) [Compound 324], in that order: more than 1000 nM and less than 100 nM.
For `Cc1c(Oc2cccc(C(=O)N3CCN(c4ncc(C(F)(F)F)cn4)CC3)c2)n[nH]c(=O)c1C(F)(F)F` [Compound 15], in that order: 100 to 1000 nM and less than 100 nM.
For `N#Cc1cnc(N2CCN(C(=O)c3cccc(Oc4n[nH]c(=O)c(C(F)(F)F)c4N4CC5(CCC5)C4)c3)CC2)nc1` [Compound 179], the IC50 in the assay with NCI-H1373 cells (Homo sapiens, NCI-H1373, 144 h) is less than 100 nM; on PARP7, less than 100 nM.
As for `O=C(c1cncc(Oc2n[nH]c(=O)c(C(F)(F)F)c2N2CC(C3CC3)C2)c1)N1CCN(c2ncc(Cl)cn2)CC1` [Compound 280], the IC50 was 100 to 1000 nM in the assay on NCI-H1373 cells (Homo sapiens, NCI-H1373, 144 h) and less than 100 nM at PARP7.
As to `O=C(CC1CN(c2cc(C(F)(F)F)c(=O)[nH]n2)c2cc(C(=O)N3CCC3)ccc2O1)N1CCN(c2ncc(C(F)(F)F)cn2)CC1` (single isomer, unassigned) [Compound 337], the IC50 was more than 1000 nM in the assay on NCI-H1373 cells and less than 100 nM on PARP7.
Turning to `O=C(c1cc(Oc2n[nH]c(=O)c(C(F)(F)F)c2N2CC3(C2)CC(F)(F)C3)ccn1)N1CCN(c2cnc(C(F)(F)F)cn2)CC1` [Compound 331], the IC50 in the assay with NCI-H1373 cells (Homo sapiens, NCI-H1373, 144 h) was less than 100 nM; at PARP7, less than 100 nM.
For the compound `COCCNC(=O)c1ccc2c(c1)N(c1cc(C(F)(F)F)c(=O)[nH]n1)CC(CC(=O)N1CCN(c3ncc(C(F)(F)F)cn3)CC1)O2` (single isomer, unassigned) [Compound 309], the IC50 in the assay on NCI-H1373 cells (Homo sapiens, NCI-H1373, 144 h) was 100 to 1000 nM; at PARP7 it was less than 100 nM.
The matching figures for `O=C(COC1CCOc2c1n[nH]c(=O)c2Br)N1CCN(c2ncc(C(F)(F)F)cn2)CC1` (single isomer, unassigned) [Compound 8]: 100 to 1000 nM and less than 100 nM.
For `Cc1c(N2CCOc3ccc(C(=O)N4CCN(c5ncc(C(F)(F)F)cn5)CC4)cc32)n[nH]c(=O)c1C(F)(F)F` [Compound 78], in that order: 100 to 1000 nM and 100 to 1000 nM.
`C[C@@H]1CN(C(=O)c2cccc(Oc3n[nH]c(=O)c(C(F)(F)F)c3N3CC4(CCO4)C3)c2)CCN1c1ncc(C(F)(F)F)cn1` [Compound 252]: the IC50 in the assay on NCI-H1373 cells (Homo sapiens, NCI-H1373, 144 h) was less than 100 nM; on PARP7 it was less than 100 nM.
Regarding `N#Cc1cnc(N2CCN(C(=O)c3cncc(Oc4n[nH]c(=O)c(C(F)(F)F)c4N4CC5(C4)CC(F)(F)C5)c3)CC2)nc1` [Compound 236], the IC50 in the assay with NCI-H1373 cells (Homo sapiens, NCI-H1373, 144 h) was 100 to 1000 nM; on PARP7, less than 100 nM.
Regarding `O=C(CC1CN(c2cc(C(F)(F)F)c(=O)[nH]n2)c2cc(C(F)F)ccc2O1)N1CCN(c2cnc(C(F)(F)F)cn2)CC1` (single isomer, unassigned) [Compound 145], the IC50 is less than 100 nM in the assay with NCI-H1373 cells (Homo sapiens, NCI-H1373, 144 h) and less than 100 nM at PARP7.
`O=C(CC1CN(c2cc(C(F)(F)F)c(=O)[nH]n2)CCO1)N1CCN(c2ncc(C(F)(F)F)cn2)CC1` (single isomer, unassigned) [Compound 32]: the IC50 is 100 to 1000 nM with NCI-H1373 cells (Homo sapiens, NCI-H1373, 144 h) and less than 100 nM at PARP7.
The matching figures for `O=C(CC1CN(c2n[nH]c(=O)c3cc(F)ccc23)CCO1)N1CCN(c2ncc(C(F)(F)F)cn2)CC1` (single isomer, unassigned) [Compound 50]: 100 to 1000 nM and less than 100 nM.
As to `N#Cc1ccc(N2CCN(C(=O)CC3CN(c4cc(C(F)(F)F)c(=O)[nH]n4)c4ccccc4O3)CC2)nc1` (single isomer, unassigned) [Compound 222], the IC50 at PARP7 was in the range of 100 to 1000 nM.
As for `O=C(CC[C@@H]1COCCN1c1cc(C(F)(F)F)c(=O)[nH]n1)N1CCN(c2ncc(C(F)(F)F)cn2)CC1` [Compound 58], the IC50 on PARP7 is less than 100 nM.
The same measure, in the same setting: the value for `O=C(c1ccc2c(c1)N(c1cc(C(F)(F)F)c(=O)[nH]n1)CCO2)N1CCN(c2ncc(C(F)(F)F)cn2)CC1` [Compound 30] was 100 to 1000 nM; that for `O=C(c1cccc(Oc2n[nH]c(=O)c(C(F)(F)F)c2N2CC3(CC3)C2)c1)N1CCN(c2ncc(C(F)(F)F)cn2)CC1` [Compound 59] was less than 100 nM; that for `C[C@H]1CN(c2n[nH]c(=O)c3cccc(F)c23)C[C@H](CC(=O)N2CCN(c3ncc(C(F)(F)F)cn3)CC2)O1` (stereo in doubt) [Compound 88] was 100 to 1000 nM.
Still for that read-out and setting: the value for `O=C(c1cncc(Oc2n[nH]c(=O)c(C(F)(F)F)c2N2CC3(C2)CC(F)(F)C3)c1)N1CCN(c2cnc(C(F)(F)F)cn2)CC1` [Compound 334] was less than 100 nM; that for `O=C(CC1CN(c2cc(C(F)(F)F)c(=O)[nH]n2)c2cc(C3CC3)ccc2O1)N1CCN(c2ncc(C(F)(F)F)cn2)CC1` (single isomer, unassigned) [Compound 135] was less than 100 nM.
